Measured values published in EP4606800A1, “COMPOUND BASED ON ORYDALMINE STRUCTURE AND USE THEREOF” (Beijing Tide Pharmaceutical Co., Ltd., priority 2022, dated 2024).

Experiments:
[1] = test system: Acetic Acid-induced Writhing Model; test: Analgesia test in acetic acid-induced writhing model (oral gavage); assay type: in vivo; conditions: CD-1 mice, n=5, mean ± standard error, single oral gavage; for Number of Writhing 5-15 min: 5-15 min after injection of 0.6% glacial acetic acid, acetic acid 2h after administration (Fentanyl intravenous, 10 min after). Dose mg/kg: Fentanyl 0.008, A10-0 18.0, A3 30.0, A10 30.1, A14 30.6, A15 20.6, A17 18.7, A18 32.3, A21 31.8, A22 22.3, A7 40.7, A19 18.4, A23 28.4, A44 32.0, A24 25.5, A53 26.9, A40 34.5, A55 40.5, A57 26.7, A4 30; for Number of Writhing 15-30 min: 15-30 min after injection of 0.6% glacial acetic acid, acetic acid 2h after administration (Fentanyl intravenous, 10 min after). Dose mg/kg: Fentanyl 0.008, A10-0 18.0, A3 30.0, A10 30.1, A14 30.6, A15 20.6, A17 18.7, A18 32.3, A21 31.8, A22 22.3, A7 40.7, A19 18.4, A23 28.4, A44 32.0, A24 25.5, A53 26.9, A40 34.5, A55 40.5, A57 26.7, A4 3; for Time to start writhing: 0.6% glacial acetic acid 2h after administration (Fentanyl intravenous, 10 min after). Dose mg/kg: Fentanyl 0.008, A10-0 18.0, A3 30.0, A10 30.1, A14 30.6, A15 20.6, A17 18.7, A18 32.3, A21 31.8, A22 22.3, A7 40.7, A19 18.4, A23 28.4, A44 32.0, A24 25.5, A53 26.9, A40 34.5, A55 40.5, A57 26.7, A4 30.0; for Number of Writhing Total: total of 5-15 min and 15-30 min after injection of 0.6% glacial acetic acid, acetic acid 2h after administration (Fentanyl intravenous, 10 min after). Dose mg/kg: Fentanyl 0.008, A10-0 18.0, A3 30.0, A10 30.1, A14 30.6, A15 20.6, A17 18.7, A18 32.3, A21 31.8, A22 22.3, A7 40.7, A19 18.4, A23 28.4, A44 32.0, A24 25.5, A53 26.9, A40 34.5, A5
[2] = test system: inflammatory pain model induced by complete Freund's adjuvant in mice; test: Mechanical pain test of inflammatory pain model induced by complete Freund's adjuvant in mice; assay type: in vivo, mice (C57BL/6J); conditions: C57BL/6J male mice, n=4; tested 0.5h, 2h, 8h, 24h after first administration; Morphine 2 mg/kg subcutaneous; A10-0 5 mg/kg and A3 8.4 mg/kg oral gavage at intervals of 8h

SMILES	Number of Writhing 5-15 min [1]	Number of Writhing 15-30 min [1]	Time to start writhing [1]	Number of Writhing Total [1]	analgesic effect on the inflammatory pain model in mice (mechanical pain threshold, Fig. 1) [2]	effect of reducing the sole-swelling degree in mice (plantar thickness, Fig. 2) [2]
COc1cc2c(cc1OC)[C@@H]1Cc3ccc(OC(=O)[C@@H](C)c4ccc(-c5ccccc5)c(F)c4)c(OC)c3CN1CC2 [Compound A4]	14±14	12±14	154 ± 151 s	26±27	–	–
COc1cc2c(cc1OC)[C@@H]1Cc3ccc(O)c(OC)c3CN1CC2 [Compound A10-0, Corydalmine]	4±3	5±3	545 ± 221 s	9±2	did not have a significant analgesic effect on the inflammatory pain model in mice	had an effect of reducing the sole-welling degree in mice, but the effect was maintained for a short time
CN1CC[C@]23c4c5ccc(O)c4O[C@H]2[C@@H](O)C=C[C@H]3[C@H]1C5 [Morphine]	–	–	–	–	a good analgesic effect on the inflammatory pain mode in mice, but the effect cannot be maintained for a long term	did not have an effect of reducing the sole-swelling degree in mice
